Our source for the MIC values is ChEMBL document CHEMBL1139244, “Synthesis and antifungal activity of 1H-pyrrolo[3,2-g]quinoline-4,9-diones and 4,9-dioxo-4,9-dihydro-1H-benzo[f]indoles” (2009).

Common to all, as to format: functional
One assay relates to Aspergillus niger. Description: Antifungal activity against Aspergillus niger KCTC 1231 after 2 days. The following applies: KCTC 1231, 48 h.
The test system of another assay is Candida tropicalis. Description: Antifungal activity against Candida tropicalis KCCM 50662 after 1 day. Conditions: KCCM 50662, 24 h.
For a further assay, the system named is Candida albicans. Description: Antifungal activity against Candida albicans KCCM 50235 after 1 day. The following applies: KCCM 50235, 24 h.
The next assay has as its system Cryptococcus neoformans. Description: Antifungal activity against Cryptococcus neoformans KCCM 50564 after 1 day. The following applies: KCCM 50564, 24 h.
In another assay the test system is Pichia kudriavzevii. Description: Antifungal activity against Candida krusei KCCM 11655 after 1 day. Conditions: KCCM 11655, 24 h.

Values after ≈ are worked out from the molar mass of the structure shown. Some results are limits rather than exact numbers.

On to `Cn1c(N)c(C#N)c2c1C(=O)c1ccccc1C2=O`, for which the MIC against Aspergillus niger was found to be 25 µg/mL (≈ 99.5 µM); in the assay on Candida tropicalis, 6.3 µg/mL (≈ 25.1 µM); against Candida albicans, 12.5 µg/mL (≈ 49.8 µM); with Cryptococcus neoformans it was 12.5 µg/mL (≈ 49.8 µM); against Pichia kudriavzevii, 12.5 µg/mL (≈ 49.8 µM).

As to `Nc1ccc(O)c2ncccc12`, the minimum inhibitory concentration (MIC) in the assay on Aspergillus niger is greater than 100 µg/mL; in the assay with Candida tropicalis, greater than 100 µg/mL; in the assay on Candida albicans, greater than 100 µg/mL; against Cryptococcus neoformans it was 100 µg/mL (≈ 624 µM); against Pichia kudriavzevii, 100 µg/mL (≈ 624 µM).

With `CCOC(=O)c1c2c(n(-c3ccc(C)cc3)c1N)C(=O)c1ncccc1C2=O`, the minimum inhibitory concentration (MIC) is 25 µg/mL (≈ 66.6 µM) with Aspergillus niger; 3.2 µg/mL (≈ 8.52 µM) against Candida tropicalis; greater than 100 µg/mL with Candida albicans; 12.5 µg/mL (≈ 33.3 µM) against Cryptococcus neoformans; 12.5 µg/mL (≈ 33.3 µM) against Pichia kudriavzevii.

On to `COC(=O)c1c2c(n(-c3ccc(OC)cc3)c1N)C(=O)c1ncccc1C2=O`, for which the minimum inhibitory concentration (MIC) is 50 µg/mL (≈ 133 µM) against Aspergillus niger; greater than 100 µg/mL against Candida tropicalis; greater than 100 µg/mL against Candida albicans; greater than 100 µg/mL with Cryptococcus neoformans; 12.5 µg/mL (≈ 33.1 µM) with Pichia kudriavzevii.

Turning to `COC(=O)c1c2c(n(-c3ccccc3)c1N)C(=O)c1ncccc1C2=O`, the MIC in the assay on Aspergillus niger was 50 µg/mL (≈ 144 µM); in the assay on Candida tropicalis it was greater than 100 µg/mL; in the assay with Candida albicans, greater than 100 µg/mL; in the assay with Cryptococcus neoformans it was greater than 100 µg/mL; in the assay with Pichia kudriavzevii, 50 µg/mL (≈ 144 µM).

On to `CCOC(=O)c1c2c(n(-c3ccc(OC)cc3)c1N)C(=O)c1ncccc1C2=O`, for which the MIC is 25 µg/mL (≈ 63.9 µM) against Aspergillus niger; 12.5 µg/mL (≈ 31.9 µM) with Candida tropicalis; greater than 100 µg/mL against Candida albicans; 50 µg/mL (≈ 128 µM) against Cryptococcus neoformans; greater than 100 µg/mL in the assay on Pichia kudriavzevii.

On to `COC(=O)c1c2c(n(-c3ccc(C)cc3)c1N)C(=O)c1ncccc1C2=O`, for which the minimal inhibitory concentration (MIC) with Aspergillus niger was greater than 100 µg/mL; with Candida tropicalis, 100 µg/mL (≈ 277 µM); in the assay on Candida albicans it was 100 µg/mL (≈ 277 µM); against Cryptococcus neoformans, 12.5 µg/mL (≈ 34.6 µM); in the assay with Pichia kudriavzevii, 12.5 µg/mL (≈ 34.6 µM).

On to `CCOC(=O)c1c2c(n(-c3ccc(F)c(F)c3)c1N)C(=O)c1ncccc1C2=O`, for which the MIC against Aspergillus niger is 25 µg/mL (≈ 62.9 µM); against Candida tropicalis, 50 µg/mL (≈ 126 µM); in the assay on Candida albicans it was 1.6 µg/mL (≈ 4.03 µM); in the assay with Cryptococcus neoformans, 50 µg/mL (≈ 126 µM); in the assay on Pichia kudriavzevii it was 25 µg/mL (≈ 62.9 µM).

Turning to `CCOC(=O)c1c2c(n(-c3ccc(Cl)cc3)c1N)C(=O)c1ncccc1C2=O`, the minimum inhibitory concentration (MIC) is 6.3 µg/mL (≈ 15.9 µM) against Aspergillus niger; 3.2 µg/mL (≈ 8.08 µM) in the assay on Candida tropicalis; greater than 100 µg/mL in the assay with Candida albicans; 50 µg/mL (≈ 126 µM) in the assay on Cryptococcus neoformans; greater than 100 µg/mL with Pichia kudriavzevii.

As for `CCOC(=O)c1c2c(n(-c3ccc(Br)cc3)c1N)C(=O)c1ncccc1C2=O`, the MIC against Aspergillus niger is 50 µg/mL (≈ 114 µM); with Candida tropicalis it was 3.2 µg/mL (≈ 7.27 µM); with Candida albicans it was 50 µg/mL (≈ 114 µM); against Cryptococcus neoformans, 25 µg/mL (≈ 56.8 µM); in the assay on Pichia kudriavzevii, greater than 100 µg/mL.

As for `CCOC(=O)c1c2c(n(-c3ccc(C(F)(F)F)cc3)c1N)C(=O)c1ncccc1C2=O`, the MIC in the assay with Aspergillus niger was 12.5 µg/mL (≈ 29.1 µM); against Candida tropicalis, 0.8 µg/mL (≈ 1.86 µM); against Candida albicans, 6.3 µg/mL (≈ 14.7 µM); against Cryptococcus neoformans it was 12.5 µg/mL (≈ 29.1 µM); against Pichia kudriavzevii, 6.3 µg/mL (≈ 14.7 µM).

For `CCOC(=O)c1c2c(n(-c3ccc(F)cc3)c1N)C(=O)c1ncccc1C2=O`, the minimum inhibitory concentration (MIC) is 50 µg/mL (≈ 132 µM) against Aspergillus niger; 6.3 µg/mL (≈ 16.6 µM) against Candida tropicalis; greater than 100 µg/mL with Candida albicans; 25 µg/mL (≈ 65.9 µM) with Cryptococcus neoformans; greater than 100 µg/mL in the assay on Pichia kudriavzevii.

Turning to `CCn1c(N)c(C#N)c2c1C(=O)c1ccccc1C2=O`, the MIC in the assay with Aspergillus niger turned out to be 25 µg/mL (≈ 94.2 µM); in the assay with Candida tropicalis, 25 µg/mL (≈ 94.2 µM); with Candida albicans, 25 µg/mL (≈ 94.2 µM); against Cryptococcus neoformans, 12.5 µg/mL (≈ 47.1 µM); against Pichia kudriavzevii, 12.5 µg/mL (≈ 47.1 µM).

`Cc1ccc(-n2c(N)c(C#N)c3c2C(=O)c2ccccc2C3=O)cc1`: the MIC in the assay on Aspergillus niger was greater than 100 µg/mL; in the assay with Candida tropicalis, greater than 100 µg/mL; with Candida albicans, greater than 100 µg/mL; in the assay with Cryptococcus neoformans it was 100 µg/mL (≈ 305 µM); in the assay with Pichia kudriavzevii, 3.2 µg/mL (≈ 9.78 µM).

`N#Cc1c2c(n(-c3ccccc3)c1N)C(=O)c1ccccc1C2=O`: the MIC against Aspergillus niger is greater than 100 µg/mL; against Candida tropicalis it was 100 µg/mL (≈ 319 µM); with Candida albicans, 100 µg/mL (≈ 319 µM); in the assay on Cryptococcus neoformans, 100 µg/mL (≈ 319 µM); against Pichia kudriavzevii it was 3.2 µg/mL (≈ 10.2 µM).

As to `CCOC(=O)c1c2c(n(-c3ccc(O)cc3)c1N)C(=O)c1ncccc1C2=O`, the minimal inhibitory concentration (MIC) amounted to 25 µg/mL (≈ 66.3 µM) in the assay on Aspergillus niger; 0.6 µg/mL (≈ 1.59 µM) with Candida tropicalis; 3.2 µg/mL (≈ 8.48 µM) against Candida albicans; 12.5 µg/mL (≈ 33.1 µM) against Cryptococcus neoformans; 12.5 µg/mL (≈ 33.1 µM) against Pichia kudriavzevii.

In the case of `CCOC(=O)c1c2c(n(-c3ccccc3)c1N)C(=O)c1ncccc1C2=O`, the MIC in the assay on Aspergillus niger was 50 µg/mL (≈ 138 µM); in the assay with Candida tropicalis it was 6.3 µg/mL (≈ 17.4 µM); in the assay with Candida albicans, greater than 100 µg/mL; against Cryptococcus neoformans it was 50 µg/mL (≈ 138 µM); with Pichia kudriavzevii it was greater than 100 µg/mL.

In the case of `CCOC(=O)c1c2c(n(-c3ccc(I)cc3)c1N)C(=O)c1ncccc1C2=O`, the minimal inhibitory concentration (MIC) in the assay on Aspergillus niger is 12.5 µg/mL (≈ 25.7 µM); against Candida tropicalis, 3.2 µg/mL (≈ 6.57 µM); against Candida albicans it was 25 µg/mL (≈ 51.3 µM); against Cryptococcus neoformans it was 25 µg/mL (≈ 51.3 µM); in the assay with Pichia kudriavzevii it was 25 µg/mL (≈ 51.3 µM).

As for `OC(Cn1cncn1)(Cn1cncn1)c1ccc(F)cc1F` [FLUCONAZOLE], the MIC in the assay with Aspergillus niger was determined as 50 µg/mL (≈ 163 µM); with Candida tropicalis it was 6.3 µg/mL (≈ 20.6 µM); against Candida albicans it was 12.5 µg/mL (≈ 40.8 µM); against Cryptococcus neoformans, 50 µg/mL (≈ 163 µM); with Pichia kudriavzevii, 25 µg/mL (≈ 81.6 µM).

Regarding `Nc1nc(=O)[nH]cc1F` [FLUCYTOSINE], the minimum inhibitory concentration (MIC) against Aspergillus niger was 50 µg/mL (≈ 387 µM); against Candida tropicalis, 12.5 µg/mL (≈ 96.8 µM); in the assay with Candida albicans, 6.3 µg/mL (≈ 48.8 µM); in the assay with Cryptococcus neoformans, 12.5 µg/mL (≈ 96.8 µM); in the assay on Pichia kudriavzevii, 6.3 µg/mL (≈ 48.8 µM).
